By IC50 is commonly meant the point on the concentration scale where inhibition reaches its midpoint.

The target of one assay is T1, human recombinant HDAC6 (Homo sapiens, UniProt Q9UBN7).
T1 construct: purchased Calbiochem 382180
T1 sequence (Q9UBN7 1-1215): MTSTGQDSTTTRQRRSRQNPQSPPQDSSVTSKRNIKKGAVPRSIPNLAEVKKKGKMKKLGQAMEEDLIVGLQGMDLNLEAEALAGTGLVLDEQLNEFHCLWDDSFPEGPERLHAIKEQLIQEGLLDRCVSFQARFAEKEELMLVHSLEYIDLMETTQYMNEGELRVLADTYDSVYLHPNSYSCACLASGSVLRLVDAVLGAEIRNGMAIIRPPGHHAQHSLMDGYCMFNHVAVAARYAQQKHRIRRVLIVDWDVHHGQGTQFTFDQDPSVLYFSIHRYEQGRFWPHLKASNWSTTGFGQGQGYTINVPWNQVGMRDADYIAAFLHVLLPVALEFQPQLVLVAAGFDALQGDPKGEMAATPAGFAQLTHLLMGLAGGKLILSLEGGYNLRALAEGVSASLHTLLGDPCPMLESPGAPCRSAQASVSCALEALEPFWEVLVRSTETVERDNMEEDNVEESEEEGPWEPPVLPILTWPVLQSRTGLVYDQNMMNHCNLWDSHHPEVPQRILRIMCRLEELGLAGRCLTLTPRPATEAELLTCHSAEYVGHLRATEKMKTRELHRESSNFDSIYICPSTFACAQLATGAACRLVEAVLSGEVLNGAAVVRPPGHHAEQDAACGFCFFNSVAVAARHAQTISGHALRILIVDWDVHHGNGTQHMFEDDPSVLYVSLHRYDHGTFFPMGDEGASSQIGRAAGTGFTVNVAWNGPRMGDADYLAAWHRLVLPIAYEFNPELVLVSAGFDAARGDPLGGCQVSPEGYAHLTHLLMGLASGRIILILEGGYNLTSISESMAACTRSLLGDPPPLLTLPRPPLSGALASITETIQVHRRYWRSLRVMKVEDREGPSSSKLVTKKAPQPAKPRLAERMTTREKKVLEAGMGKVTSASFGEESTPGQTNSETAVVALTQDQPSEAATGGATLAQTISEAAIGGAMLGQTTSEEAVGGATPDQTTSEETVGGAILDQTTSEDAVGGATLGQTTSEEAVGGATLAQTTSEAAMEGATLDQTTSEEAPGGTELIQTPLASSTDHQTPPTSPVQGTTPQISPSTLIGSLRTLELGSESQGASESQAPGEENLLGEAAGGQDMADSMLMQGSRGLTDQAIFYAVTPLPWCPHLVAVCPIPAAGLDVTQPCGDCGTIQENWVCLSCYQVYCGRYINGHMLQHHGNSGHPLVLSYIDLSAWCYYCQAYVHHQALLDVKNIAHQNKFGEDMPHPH
As to the kind of experiment: HDAC6 enzyme activity inhibition test (HDAC Fluorometric Drug Discovery Kit). The format is biochemical. Conditions: for HDAC6 selectivity (fold): HDAC6 over HDAC1; for IC50: human recombinant HDAC6, same protocol as HDAC1. In short, it runs like this:
(§1)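 IC50 derived from fluorescence (Ex 360, Em 460) following 30 min development with Developer II. Each reaction held 0.3 μg human recombinant HDAC1 or HDAC6, 10 μM Fluor de Lys SIRT1 substrate and 5-fold serially diluted compound, incubated 60 min at 30 °C.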

A further assay deals with T2, human recombinant HDAC1 (Homo sapiens, UniProt Q13547).
T2 construct: purchased Enzo Life Science BML-SE456
T2 sequence (Q13547 whole entry): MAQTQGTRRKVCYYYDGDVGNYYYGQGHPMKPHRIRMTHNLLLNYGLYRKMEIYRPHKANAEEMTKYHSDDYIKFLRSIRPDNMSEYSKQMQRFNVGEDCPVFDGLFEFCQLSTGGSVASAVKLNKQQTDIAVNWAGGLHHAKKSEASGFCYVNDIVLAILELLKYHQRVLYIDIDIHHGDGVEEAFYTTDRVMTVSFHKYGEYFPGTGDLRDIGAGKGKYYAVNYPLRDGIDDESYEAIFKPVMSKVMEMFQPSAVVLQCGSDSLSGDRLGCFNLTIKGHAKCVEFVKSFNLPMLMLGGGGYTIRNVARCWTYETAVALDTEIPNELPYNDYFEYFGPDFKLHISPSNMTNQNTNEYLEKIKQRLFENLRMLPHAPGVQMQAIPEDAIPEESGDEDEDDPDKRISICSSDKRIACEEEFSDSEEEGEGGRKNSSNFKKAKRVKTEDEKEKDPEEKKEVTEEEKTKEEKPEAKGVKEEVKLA
Description: HDAC1 enzyme activity inhibition test (HDAC Fluorometric Drug Discovery Kit). The format is biochemical. The conditions noted are these: 30° C., 60 minutes, 10 μM substrate. In short, it runs like this:
as §1

Each structure is given as a SMILES string. Bounds are passed on as bounds.

As for `CN1CCN(c2cccc(-c3nn(Cc4ccc(-c5nnc(C(F)F)o5)cn4)c(=S)o3)c2)CC1` [Compound 75, 3-[[5-[5-(difluoromethyl)-1,3,4-oxadiazol-2-yl]-2-pyridyl]methyl]-5-[3-(4-methylpiperazin-1-yl)phenyl]-1,3,4-oxadiazol-2-thione], at human recombinant HDAC6, the “HDAC6 selectivity (fold)” value is listed as 1149 fold and the half-maximal inhibitory concentration (IC50) was 43.5 nM. Further, the half-inhibitory concentration (IC50) on human recombinant HDAC1 was more than 50000 nM.

On to `CC(C)N1CCN(c2cccc(-c3nn(Cc4ccc(-c5nnc(C(F)F)o5)cn4)c(=S)o3)c2)CC1` [Compound 76, 3-[[5-[5-(difluoromethyl)-1,3,4-oxadiazol-2-yl]-2-pyridyl]methyl]-5-[3-(4-isopropylpiperazin-1-yl)phenyl]-1,3,4-oxadiazol-2-thione], for which, on human recombinant HDAC6, the “HDAC6 selectivity (fold)” value worked out at 945 fold and the 50% inhibitory concentration (IC50) stood at 52.9 nM. Besides, the IC50 on human recombinant HDAC1 was more than 50000 nM.

On to `CC(C)N1CCN(Cc2ccc(-c3nn(Cc4ccc(-c5nnc(C(F)F)o5)cn4)c(=S)o3)cc2)CC1` [Compound 77, 3-[[5-[5-(difluoromethyl)-1,3,4-oxadiazol-2-yl]-2-pyridyl]methyl]-5-[4-[(4-isopropylpiperazin-1-yl)methyl]phenyl]-1,3,4-oxadiazol-2-thione], for which, on human recombinant HDAC6, the “HDAC6 selectivity (fold)” value is 669 fold and the half-maximal inhibitory concentration (IC50) was 74.7 nM. On human recombinant HDAC1, the IC50 is more than 50000 nM.

In the case of `FC(F)c1nnc(-c2ccc(Cn3nc(-c4ccc(CN5CCN(C6CCC6)CC5)cc4)oc3=S)nc2)o1` [Compound 78, 5-[4-[(4-cyclobutylpiperazin-1-yl)methyl]phenyl]-3-[[5-[5-(difluoromethyl)-1,3,4-oxadiazol-2-yl]-2-pyridyl]methyl]-1,3,4-oxadiazol-2-thione], on human recombinant HDAC6, the “HDAC6 selectivity (fold)” value is recorded as 498 fold and the half-maximal inhibitory concentration (IC50) worked out at 100 nM. At human recombinant HDAC1, the concentration for half-maximal inhibition (IC50) was more than 50000 nM.

For the compound `FC(F)c1nnc(-c2ccc(Cn3nc(-c4ccc(CN5CCN(C6CCCC6)CC5)cc4)oc3=S)nc2)o1` [Compound 79, 5-[4-[(4-cyclopentylpiperazin-1-yl)methyl]phenyl]-3-[[5-[5-(difluoromethyl)-1,3,4-oxadiazol-2-yl]-2-pyridyl]methyl]-1,3,4-oxadiazol-2-thione], on human recombinant HDAC6, the “HDAC6 selectivity (fold)” value is 461 fold. Further, the half-inhibitory concentration (IC50) at human recombinant HDAC6 is 108 nM; at human recombinant HDAC1, more than 50000 nM.

With `CC(C)N1CCC(c2cccc(-c3nn(Cc4ccc(-c5nnc(C(F)F)o5)cn4)c(=S)o3)c2F)CC1` [Compound 80, 3-[[5-[5-(difluoromethyl)-1,3,4-oxadiazol-2-yl]-2-pyridyl]methyl]-5-[2-fluoro-3-(1-isopropyl-4-piperidyl)phenyl]-1,3,4-oxadiazol-2-thione], at human recombinant HDAC6, the “HDAC6 selectivity (fold)” value came out at 649 fold and the IC50 was 77.1 nM. The half-inhibitory concentration (IC50) at human recombinant HDAC1 is more than 50000 nM.

Turning to `Fc1c(-c2nn(Cc3ccc(-c4nnc(C(F)F)o4)cn3)c(=S)o2)cccc1C1CCN(C2CCC2)CC1` [Compound 81, 5-[3-(1-cyclobutyl-4-piperidyl)-2-fluoro-phenyl]-3-[[5-[5-(difluoromethyl)-1,3,4-oxadiazol-2-yl]-2-pyridyl]methyl]-1,3,4-oxadiazol-2-thione], the “HDAC6 selectivity (fold)” value on human recombinant HDAC6 is given as 576 fold. The half-inhibitory concentration (IC50) at human recombinant HDAC6 was 86.8 nM; at human recombinant HDAC1, more than 50000 nM.

For the compound `Fc1c(-c2nn(Cc3ccc(-c4nnc(C(F)F)o4)cn3)c(=S)o2)cccc1C1CCN(C2CCCC2)CC1` [Compound 82, 5-[3-(1-cyclopentyl-4-piperidyl)-2-fluoro-phenyl]-3-[[5-[5-(difluoromethyl)-1,3,4-oxadiazol-2-yl]-2-pyridyl]methyl]-1,3,4-oxadiazol-2-thione], on human recombinant HDAC6, the “HDAC6 selectivity (fold)” value is on record as 453 fold and the IC50 amounted to 110 nM. For the same compound, the IC50 at human recombinant HDAC1 is more than 50000 nM.

Regarding `CC(C)N1CCN(Cc2ccc(-c3nn(Cc4ccc(-c5nnc(C(F)F)o5)cn4)c(=O)o3)cc2)CC1` [Compound 83, 3-[[5-[5-(difluoromethyl)-1,3,4-oxadiazol-2-yl]-2-pyridyl]methyl]-5-[4-[(4-isopropylpiperazin-1-yl)methyl]phenyl]-1,3,4-oxadiazol-2-one], the “HDAC6 selectivity (fold)” value on human recombinant HDAC6 was 554 fold. The IC50 on human recombinant HDAC6 was 90.3 nM; on human recombinant HDAC1, more than 50000 nM.

For `CN(C)Cc1cccc(-c2nn(Cc3ccc(-c4nnc(C(F)F)o4)cn3)c(=S)o2)c1` [Compound 84, 3-((5-(5-(difluoromethyl)-1,3,4-oxadiazol-2-yl)pyridin-2-yl)methyl)-5-(3-((dimethylamino)methyl)phenyl)-1,3,4-oxadiazol-2(3H)-thione], at human recombinant HDAC6, the “HDAC6 selectivity (fold)” value was 497 fold and the IC50 is 101 nM. For the same compound, at human recombinant HDAC1, the IC50 was more than 50000 nM.

Take `CNCc1cccc(-c2nn(Cc3ccc(-c4nnc(C(F)F)o4)cn3)c(=S)o2)c1` [Compound 85, 3-[[5-[5-(difluoromethyl)-1,3,4-oxadiazol-2-yl]-2-pyridyl]methyl]-5-[3-(methylaminomethyl)phenyl]-1,3,4-oxadiazol-2-thione]: at human recombinant HDAC6, the “HDAC6 selectivity (fold)” value amounted to 447 fold and the IC50 was determined as 112 nM. Moreover, the IC50 at human recombinant HDAC1 is more than 50000 nM.

Consider `FC(F)c1nnc(-c2ccc(Cn3nc(-c4cccc(CN5CCCC5)c4)oc3=S)nc2)o1` [Compound 86, 3-[[5-[5-(difluoromethyl)-1,3,4-oxadiazol-2-yl]-2-pyridyl]methyl]-5-[3-(pyrrolidin-1-ylmethyl)phenyl]-1,3,4-oxadiazol-2-thione], for which, at human recombinant HDAC6, the “HDAC6 selectivity (fold)” value is on record as 760 fold and the IC50 was 65.8 nM. Also, on human recombinant HDAC1, the half-maximal inhibitory concentration (IC50) was more than 50000 nM.

Turning to `FC(F)c1nnc(-c2ccc(Cn3nc(-c4cccc(CN5CCCCC5)c4)oc3=S)nc2)o1` [Compound 87, 3-[[5-[5-(difluoromethyl)-1,3,4-oxadiazol-2-yl]-2-pyridyl]methyl]-5-[3-(1-piperidylmethyl)phenyl]-1,3,4-oxadiazol-2-thione], at human recombinant HDAC6, the “HDAC6 selectivity (fold)” value is recorded as 556 fold and the half-inhibitory concentration (IC50) amounted to 89.9 nM. Besides, on human recombinant HDAC1, the IC50 was more than 50000 nM.

In the case of `CC1CCN(Cc2cccc(-c3nn(Cc4ccc(-c5nnc(C(F)F)o5)cn4)c(=S)o3)c2)CC1` [Compound 88, 3-[[5-[5-(difluoromethyl)-1,3,4-oxadiazol-2-yl]-2-pyridyl]methyl]-5-[3-[(4-methyl-1-piperidyl)methyl]phenyl]-1,3,4-oxadiazol-2-thione], the “HDAC6 selectivity (fold)” value at human recombinant HDAC6 worked out at 449 fold. The IC50 was 111 nM at human recombinant HDAC6 and more than 50000 nM on human recombinant HDAC1.

For the compound `FC(F)c1nnc(-c2ccc(Cn3nc(-c4cccc(CN5CC[C@@H](F)C5)c4)oc3=S)nc2)o1` [Compound 89, 3-[[5-[5-(difluoromethyl)-1,3,4-oxadiazol-2-yl]-2-pyridyl]methyl]-5-[3-[[(3R)-3-fluoropyrrolidin-1-yl]methyl]phenyl]-1,3,4-oxadiazol-2-thione], at human recombinant HDAC6, the “HDAC6 selectivity (fold)” value was found to be 1027 fold and the IC50 was determined as 48.7 nM. For the same compound, the IC50 at human recombinant HDAC1 was more than 50000 nM.

On to `FC(F)c1nnc(-c2ccc(Cn3nc(-c4cccc(CN5CC[C@H](F)C5)c4)oc3=S)nc2)o1` [Compound 90, 3-[[5-[5-(difluoromethyl)-1,3,4-oxadiazol-2-yl]-2-pyridyl]methyl]-5-[3-[[(3S)-3-fluoropyrrolidin-1-yl]methyl]phenyl]-1,3,4-oxadiazol-2-thione], for which, on human recombinant HDAC6, the “HDAC6 selectivity (fold)” value amounted to 835 fold. The IC50 is 59.9 nM on human recombinant HDAC6 and more than 50000 nM at human recombinant HDAC1.

Source of the values: patent US20260327214A1, “1,3,4-OXADIAZOLE DERIVATIVE COMPOUNDS AS HISTONE DEACETYLASE 6 INHIBITOR, AND USES THEREOF” (CHONG KUN DANG PHARMACEUTICAL CORP., priority 2022, published 2026).
